Results taken from ChEMBL document CHEMBL5678809, “Preclinical characterization of GLPG0634, a selective inhibitor of JAK1, for the treatment of inflammatory diseases” (J Immunol, 2013).
The source made the active and inactive calls. The calls are words filed in the database; no cut-off is given here.

How the values were obtained:
[1] = molecular target: NUAK family SNF1-like kinase 1 (Homo sapiens) (UniProt O60285); assay: Inhibition of ARK5 (unknown origin) at 1 uM relative to control
[2] = molecular target: CDK7/Cyclin H/MNAT1 (Homo sapiens) (UniProt P51946+P50613+P51948); assay: Inhibition of CDK7/cyclinH/MAT1 (unknown origin) at 1 uM relative to control; assay type: protein-complex assay
[3] = molecular target: RAF proto-oncogene serine/threonine-protein kinase (Homo sapiens) (UniProt P04049); assay: Inhibition of c-RAF (unknown origin) at 1 uM relative to control
[4] = molecular target: Ephrin type-A receptor 5 (Homo sapiens, UniProt P54756); assay: Inhibition of EPHA5 (unknown origin)
[5] = molecular target: Ephrin type-B receptor 4 (Homo sapiens) (UniProt P54760); assay: Inhibition of EphB4 (unknown origin) at 1 uM relative to control
[6] = molecular target: Receptor tyrosine-protein kinase erbB-4 (Homo sapiens) (UniProt Q15303); assay: Inhibition of ErbB4 (unknown origin) at 1 uM relative to control
[7] = molecular target: Tyrosine-protein kinase Fgr (Homo sapiens) (UniProt P09769); assay: Inhibition of Fgr (unknown origin) at 1 uM relative to control
[8] = molecular target: Macrophage colony-stimulating factor 1 receptor (Homo sapiens, UniProt P07333); assay: Inhibition of FMS (unknown origin)
[9] = molecular target: Rhodopsin kinase GRK7 (Homo sapiens) (UniProt Q8WTQ7); assay: Inhibition of GRK7 (unknown origin) at 1 uM relative to control
[10] = molecular target: Homeodomain-interacting protein kinase 2 (Homo sapiens, UniProt Q9H2X6); assay: Inhibition of HIPK2 (unknown origin)
[11] = molecular target: Tyrosine-protein kinase Lyn (Homo sapiens, UniProt P07948); assay: Inhibition of LYNA (unknown origin)
[12] = molecular target: Hepatocyte growth factor receptor (Homo sapiens) (UniProt P08581); assay: Inhibition of Met (unknown origin) at 1 uM relative to control
[13] = molecular target: Ribosomal protein S6 kinase alpha-5 (Homo sapiens) (UniProt O75582); assay: Inhibition of MSK1 (unknown origin) at 1 uM relative to control
[14] = molecular target: FKBP12A/mTOR (Homo sapiens) (UniProt P62942+P42345); assay: Inhibition of mTOR/FKBP12 (unknown origin) at 1 uM relative to control; assay type: protein-complex assay
[15] = molecular target: Serine/threonine-protein kinase Nek11 (Homo sapiens) (UniProt Q8NG66); assay: Inhibition of NEK11 (unknown origin) at 1 uM relative to control
[16] = molecular target: Serine/threonine-protein kinase Nek2 (Homo sapiens) (UniProt P51955); assay: Inhibition of NEK2 (unknown origin) at 1 uM relative to control
[17] = molecular target: Serine/threonine-protein kinase Nek6 (Homo sapiens) (UniProt Q9HC98); assay: Inhibition of NEK6 (unknown origin) at 1 uM relative to control
[18] = molecular target: Serine/threonine-protein kinase PAK 2 (Homo sapiens) (UniProt Q13177); assay: Inhibition of PAK2 (unknown origin) at 1 uM relative to control
[19] = molecular target: Platelet-derived growth factor receptor alpha (Homo sapiens) (UniProt P16234); assay: Inhibition of PDGFR2 (unknown origin) at 1 uM relative to control
[20] = molecular target: Serine/threonine-protein kinase D2 (Homo sapiens) (UniProt Q9BZL6); assay: Inhibition of PKD2 (unknown origin) at 1 uM relative to control
[21] = molecular target: Tyrosine-protein kinase FRK (Homo sapiens) (UniProt P42685); assay: Inhibition of PTK5 (unknown origin) at 1 uM relative to control
[22] = molecular target: Proto-oncogene tyrosine-protein kinase receptor Ret (Homo sapiens) (UniProt P07949); assay: Inhibition of Ret (unknown origin) at 1 uM relative to control
[23] = molecular target: Serine/threonine-protein kinase Sgk2 (Homo sapiens) (UniProt Q9HBY8); assay: Inhibition of SGK2 (unknown origin) at 1 uM relative to control
[24] = molecular target: SRSF protein kinase 1 (Homo sapiens) (UniProt Q96SB4); assay: Inhibition of SRPK1 (unknown origin) at 1 uM relative to control
[25] = molecular target: SRSF protein kinase 2 (Homo sapiens) (UniProt P78362); assay: Inhibition of SRPK2 (unknown origin) at 1 uM relative to control
[26] = molecular target: Serine/threonine-protein kinase 33 (Homo sapiens) (UniProt Q9BYT3); assay: Inhibition of STK33 (unknown origin) at 1 uM relative to control
[27] = molecular target: Angiopoietin-1 receptor (Homo sapiens) (UniProt Q02763); assay: Inhibition of Tie2 (unknown origin) at 1 uM relative to control
[28] = molecular target: Testis-specific serine/threonine-protein kinase 1 (Homo sapiens) (UniProt Q9BXA7); assay: Inhibition of TSSK1 (unknown origin) at 1 uM relative to control
[29] = molecular target: Serine/threonine-protein kinase VRK2 (Homo sapiens) (UniProt Q86Y07); assay: Inhibition of VRK2 (unknown origin) at 1 uM relative to control
[30] = molecular target: Serine/threonine-protein kinase WNK2 (Homo sapiens) (UniProt Q9Y3S1); assay: Inhibition of WNK2 (unknown origin) at 1 uM relative to control
[31] = molecular target: MAP kinase-interacting serine/threonine-protein kinase 2 (Homo sapiens, UniProt Q9HBH9); assay: Inhibition of MNK2 (unknown origin) at 1 uM relative to control
[32] = Cmax in Sprague-Dawley rat at 1 mg/kg, iv measured upto 8 hrs by LC-MS analysis; assay type: ADME, organism-based; conditions: in vivo
[33] = AUC (0 to 24 hrs) in Sprague-Dawley rat at 1 mg/kg, iv measured upto 8 hrs by LC-MS analysis; assay type: ADME, organism-based; conditions: in vivo
[34] = Half life in Sprague-Dawley rat at 5 mg/kg, po measured upto 24 hrs by LC-MS analysis; assay type: ADME, organism-based; conditions: in vivo
[35] = test system: Rattus norvegicus; assay: In vivo inhibition of JAK1 in Sprague-Dawley rat assessed as reduction in MX2 mRNA level at 1 to 10 mg/kg, po measured for 24 hrs by RT-PCR analysis; assay type: functional, organism-based; conditions: dose 1-10 mg/kg
[36] = Half life in Dark Agouti rat at 3 to 30 mg/kg, po; assay type: ADME, organism-based; conditions: in vivo, dose 3-30 mg/kg
[37] = test system: Rattus norvegicus; assay: Antiarthritic activity against collagen-induced arthritis Dark Agouti rat model assessed as reduction in inflammatory infiltration at 1 mg/kg, po administered 3 times a week and measured on day 7; assay type: functional, organism-based; conditions: time 7.0 day
[38] = test system: Mus musculus; assay: Antiarthritic activity against collagen-induced arthritis DBA/1J mouse model assessed as reduction in IL-6 expression at 50 mg/kg, po measured for 4 hrs; assay type: functional, organism-based
[39] = test system: Mus musculus; assay: Antiarthritic activity against collagen-induced arthritis DBA/1J mouse model assessed as MIP-1beta level in serum at 50 mg/kg, po measured for 4 hrs by luminex analysis (reference value: 203.4= +/- 20.8 ng/ml); assay type: functional
[40] = test system: Mus musculus; assay: Antiarthritic activity against collagen-induced arthritis DBA/1J mouse model assessed as reduction in MCP-1 level in serum at 50 mg/kg, po measured for 4 hrs by luminex analysis; assay type: functional, organism-based

Chain of Receptor tyrosine-protein kinase erbB-4 (Homo sapiens) (Q15303 whole entry): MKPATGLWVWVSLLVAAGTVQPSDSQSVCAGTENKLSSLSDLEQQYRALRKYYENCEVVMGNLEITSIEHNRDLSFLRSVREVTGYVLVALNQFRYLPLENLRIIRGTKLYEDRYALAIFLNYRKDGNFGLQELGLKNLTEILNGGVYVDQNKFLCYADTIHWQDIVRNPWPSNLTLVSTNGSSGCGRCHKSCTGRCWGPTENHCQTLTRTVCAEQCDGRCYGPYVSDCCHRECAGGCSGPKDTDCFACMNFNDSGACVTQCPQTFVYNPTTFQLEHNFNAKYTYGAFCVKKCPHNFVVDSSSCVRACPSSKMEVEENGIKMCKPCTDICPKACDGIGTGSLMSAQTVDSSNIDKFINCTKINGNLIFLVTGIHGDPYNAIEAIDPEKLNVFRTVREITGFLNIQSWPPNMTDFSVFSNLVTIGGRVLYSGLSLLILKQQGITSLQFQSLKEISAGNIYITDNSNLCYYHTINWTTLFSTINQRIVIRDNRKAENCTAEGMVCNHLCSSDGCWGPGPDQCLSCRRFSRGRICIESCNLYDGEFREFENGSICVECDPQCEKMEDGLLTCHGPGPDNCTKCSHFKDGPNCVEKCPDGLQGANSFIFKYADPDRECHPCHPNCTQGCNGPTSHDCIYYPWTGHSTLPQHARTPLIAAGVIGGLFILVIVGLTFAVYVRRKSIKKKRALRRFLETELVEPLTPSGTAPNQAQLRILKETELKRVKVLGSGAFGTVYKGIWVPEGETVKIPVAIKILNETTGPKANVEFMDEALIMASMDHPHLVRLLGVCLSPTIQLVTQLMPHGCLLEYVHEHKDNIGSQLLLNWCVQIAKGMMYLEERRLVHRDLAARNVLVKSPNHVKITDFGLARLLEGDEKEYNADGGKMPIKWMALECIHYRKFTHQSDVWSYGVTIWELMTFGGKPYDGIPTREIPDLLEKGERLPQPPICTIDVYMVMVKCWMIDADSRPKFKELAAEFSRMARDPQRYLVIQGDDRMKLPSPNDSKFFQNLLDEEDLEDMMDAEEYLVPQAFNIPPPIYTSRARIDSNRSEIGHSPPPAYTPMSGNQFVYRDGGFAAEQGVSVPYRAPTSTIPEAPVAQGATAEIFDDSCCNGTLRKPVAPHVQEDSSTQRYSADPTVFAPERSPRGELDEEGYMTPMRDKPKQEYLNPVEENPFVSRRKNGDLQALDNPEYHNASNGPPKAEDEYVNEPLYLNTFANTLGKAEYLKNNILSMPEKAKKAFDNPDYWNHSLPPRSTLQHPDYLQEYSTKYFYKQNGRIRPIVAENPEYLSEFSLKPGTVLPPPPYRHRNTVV
Chain of Serine/threonine-protein kinase Sgk2 (Homo sapiens) (Q9HBY8 whole entry): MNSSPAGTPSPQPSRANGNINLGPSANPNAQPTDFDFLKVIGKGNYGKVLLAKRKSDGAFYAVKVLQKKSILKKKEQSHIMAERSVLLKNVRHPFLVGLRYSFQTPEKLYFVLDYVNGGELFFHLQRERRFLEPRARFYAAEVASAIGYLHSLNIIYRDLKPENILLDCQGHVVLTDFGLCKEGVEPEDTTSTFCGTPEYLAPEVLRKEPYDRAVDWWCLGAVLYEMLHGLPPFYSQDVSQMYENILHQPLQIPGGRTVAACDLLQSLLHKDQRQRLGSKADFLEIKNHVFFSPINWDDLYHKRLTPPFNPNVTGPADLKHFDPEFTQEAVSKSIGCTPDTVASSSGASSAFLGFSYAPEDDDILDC
Chain of Ribosomal protein S6 kinase alpha-5 (Homo sapiens) (O75582 whole entry, looked up): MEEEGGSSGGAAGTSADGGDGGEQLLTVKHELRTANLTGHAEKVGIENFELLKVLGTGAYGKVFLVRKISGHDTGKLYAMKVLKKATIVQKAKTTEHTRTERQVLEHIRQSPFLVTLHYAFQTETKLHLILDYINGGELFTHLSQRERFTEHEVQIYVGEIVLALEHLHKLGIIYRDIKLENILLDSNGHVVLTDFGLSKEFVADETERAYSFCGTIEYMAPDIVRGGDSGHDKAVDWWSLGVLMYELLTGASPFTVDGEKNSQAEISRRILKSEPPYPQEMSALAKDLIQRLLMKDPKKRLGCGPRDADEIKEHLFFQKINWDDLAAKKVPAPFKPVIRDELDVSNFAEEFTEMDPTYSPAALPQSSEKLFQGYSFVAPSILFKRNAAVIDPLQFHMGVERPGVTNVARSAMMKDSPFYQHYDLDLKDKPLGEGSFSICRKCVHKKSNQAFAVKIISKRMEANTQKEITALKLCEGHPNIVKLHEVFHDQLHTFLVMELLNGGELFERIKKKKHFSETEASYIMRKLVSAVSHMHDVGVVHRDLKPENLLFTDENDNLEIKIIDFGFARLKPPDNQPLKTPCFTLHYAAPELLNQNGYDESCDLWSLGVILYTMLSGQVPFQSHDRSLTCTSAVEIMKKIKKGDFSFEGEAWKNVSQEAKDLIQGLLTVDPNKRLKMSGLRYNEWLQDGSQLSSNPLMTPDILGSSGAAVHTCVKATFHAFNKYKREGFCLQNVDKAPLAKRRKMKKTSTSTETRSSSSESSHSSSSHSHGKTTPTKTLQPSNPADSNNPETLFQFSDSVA
Chain of RAF proto-oncogene serine/threonine-protein kinase (Homo sapiens) (P04049 whole entry): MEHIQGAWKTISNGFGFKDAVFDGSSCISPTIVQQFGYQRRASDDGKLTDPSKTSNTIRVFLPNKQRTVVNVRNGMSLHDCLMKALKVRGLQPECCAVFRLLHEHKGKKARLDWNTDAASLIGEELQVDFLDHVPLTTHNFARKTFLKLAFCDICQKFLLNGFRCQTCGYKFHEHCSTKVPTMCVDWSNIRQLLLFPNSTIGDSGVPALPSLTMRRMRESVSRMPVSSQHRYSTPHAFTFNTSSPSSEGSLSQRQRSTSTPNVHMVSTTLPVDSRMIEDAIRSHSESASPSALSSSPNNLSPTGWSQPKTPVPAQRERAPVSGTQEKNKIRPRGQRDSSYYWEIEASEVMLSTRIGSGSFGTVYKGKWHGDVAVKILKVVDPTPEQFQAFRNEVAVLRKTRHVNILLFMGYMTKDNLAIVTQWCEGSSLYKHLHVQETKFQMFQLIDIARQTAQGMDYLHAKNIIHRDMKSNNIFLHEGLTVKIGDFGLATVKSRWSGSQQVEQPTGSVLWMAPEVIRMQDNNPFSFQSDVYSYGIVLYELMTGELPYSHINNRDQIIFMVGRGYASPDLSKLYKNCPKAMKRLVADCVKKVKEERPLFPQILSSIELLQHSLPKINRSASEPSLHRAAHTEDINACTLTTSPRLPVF
Chain of FKBP12A/mTOR (Homo sapiens) (P62942 2-108 limits assumed, other chains not shown): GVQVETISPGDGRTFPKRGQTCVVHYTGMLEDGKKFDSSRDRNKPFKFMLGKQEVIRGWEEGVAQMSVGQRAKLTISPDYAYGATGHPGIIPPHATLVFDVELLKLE
Chain of MAP kinase-interacting serine/threonine-protein kinase 2 (Q9HBH9 whole entry, looked up): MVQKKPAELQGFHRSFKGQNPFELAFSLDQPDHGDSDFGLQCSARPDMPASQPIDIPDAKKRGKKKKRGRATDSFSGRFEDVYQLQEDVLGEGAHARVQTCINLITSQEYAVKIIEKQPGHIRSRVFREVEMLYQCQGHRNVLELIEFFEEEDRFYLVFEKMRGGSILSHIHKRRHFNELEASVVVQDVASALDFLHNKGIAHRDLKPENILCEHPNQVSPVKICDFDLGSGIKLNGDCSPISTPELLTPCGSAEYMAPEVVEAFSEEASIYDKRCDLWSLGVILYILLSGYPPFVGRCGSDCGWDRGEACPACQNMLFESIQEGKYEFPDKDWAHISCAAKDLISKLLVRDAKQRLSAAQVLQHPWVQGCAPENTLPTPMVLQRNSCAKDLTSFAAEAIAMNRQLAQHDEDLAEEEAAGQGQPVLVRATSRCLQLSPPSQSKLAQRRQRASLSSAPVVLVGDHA
Chain of Tyrosine-protein kinase Lyn (P07948 whole entry): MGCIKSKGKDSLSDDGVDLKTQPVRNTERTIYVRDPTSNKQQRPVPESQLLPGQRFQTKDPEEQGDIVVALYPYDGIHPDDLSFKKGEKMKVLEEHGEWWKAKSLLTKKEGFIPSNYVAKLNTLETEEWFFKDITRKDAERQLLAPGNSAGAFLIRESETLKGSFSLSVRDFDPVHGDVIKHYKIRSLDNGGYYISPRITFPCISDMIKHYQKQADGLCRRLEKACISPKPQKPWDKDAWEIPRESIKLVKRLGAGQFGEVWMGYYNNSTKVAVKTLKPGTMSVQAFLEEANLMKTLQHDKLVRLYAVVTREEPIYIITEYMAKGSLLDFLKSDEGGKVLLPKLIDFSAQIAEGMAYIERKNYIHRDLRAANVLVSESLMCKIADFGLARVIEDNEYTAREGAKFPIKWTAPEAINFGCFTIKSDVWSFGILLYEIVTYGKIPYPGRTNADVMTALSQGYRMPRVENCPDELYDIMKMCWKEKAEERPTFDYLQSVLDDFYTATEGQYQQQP
Chain of Serine/threonine-protein kinase Nek11 (Homo sapiens) (Q8NG66 whole entry): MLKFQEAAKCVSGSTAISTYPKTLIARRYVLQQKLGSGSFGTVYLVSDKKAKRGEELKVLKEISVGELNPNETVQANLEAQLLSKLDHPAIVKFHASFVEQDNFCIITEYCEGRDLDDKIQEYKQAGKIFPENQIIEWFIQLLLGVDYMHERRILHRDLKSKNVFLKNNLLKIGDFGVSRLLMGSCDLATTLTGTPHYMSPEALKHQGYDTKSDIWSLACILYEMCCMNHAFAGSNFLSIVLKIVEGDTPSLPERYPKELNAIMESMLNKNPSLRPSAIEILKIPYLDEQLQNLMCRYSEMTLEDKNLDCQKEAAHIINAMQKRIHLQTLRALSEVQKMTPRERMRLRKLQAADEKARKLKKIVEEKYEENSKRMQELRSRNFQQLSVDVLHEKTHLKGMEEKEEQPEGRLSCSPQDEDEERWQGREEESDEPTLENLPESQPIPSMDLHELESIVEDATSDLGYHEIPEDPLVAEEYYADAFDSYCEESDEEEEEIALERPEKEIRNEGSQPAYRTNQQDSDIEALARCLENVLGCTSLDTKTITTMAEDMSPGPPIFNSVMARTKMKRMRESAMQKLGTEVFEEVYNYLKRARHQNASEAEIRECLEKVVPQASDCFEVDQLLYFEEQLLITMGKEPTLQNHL

## O=C(Nc1nc2cccc(-c3ccc(CN4CCS(=O)(=O)CC4)cc3)n2n1)C1CC1 [FILGOTINIB]
[1]
  inhibition: 1%
[2]
  inhibition: 12%
[3]
  inhibition: -4%
[4]
  IC50: > 10 µM
[5]
  inhibition: 5%
[6]
  inhibition: -5%
[7]
  inhibition: 5%
[8]
  IC50: 489 nM
[9]
  inhibition: -8%
[10]
  IC50: > 10 µM
[11]
  IC50: > 10 µM
[12]
  inhibition: -3%
[13]
  inhibition: -1%
[14]
  inhibition: 3%
[15]
  inhibition: -2%
[16]
  inhibition: -10%
[17]
  inhibition: -4%
[18]
  inhibition: 3%
[19]
  inhibition: -10%
[20]
  inhibition: -10%
[21]
  inhibition: -6%
[22]
  inhibition: 9%
[23]
  inhibition: -4%
[24]
  inhibition: 4%
[25]
  inhibition: -10%
[26]
  inhibition: -8%
[27]
  inhibition: -2%
[28]
  inhibition: 5%
[29]
  inhibition: 2%
[30]
  inhibition: -1%
[31]
  inhibition: -10%
[32]
  Cmax: 1410 ng/mL
[33]
  AUC: 739 ng·h/mL
[34]
  half-life: 234 min
[35]
  inhibition: Active
[36]
  half-life: ~240 min
[37]
  Activity: Active
[38]
  Activity: Active
[39]
  Activity: 143 ng/mL
[40]
  Activity: Active
